Data set [1] can be described thus: Modeling of Mn and Zn levels in vaginal fluid delivered from slow release Z2 formulation. Further details: species or system women. The procedure:
Six women each received 3 doses of formulation Z2 separated by 48 hours. Vaginal fluid swabs were collected at t=0, 2, 4, 8, 12, 18, 24, 30, 36, and 42 hours post dose and vaginal fluid concentrations of lactoferrin and mannitol were determined. Average concentrations for the combined 18 dose administrations were obtained based on calculation of Area Under Curve for the locally estimated scatterplot smoothing (Loess) profile of lactoferrin and mannitol concentrations assuming 6 mL volume of distribution.

Details of data set [2]: species or system women. To be noted: female, human, in vivo. The procedure: Elevated levels of calprotectin in BV and in L iners-dominated vaginal microbiomes sequester manganese and zinc, preventing growth of L crispatus its maintenance of a healthy vaginal microbiome. […] Six women each received 3 doses of formulation Z2 separated by 48 hours. Vaginal fluid swabs were collected at t=0, 2, 4, 8, 12, 18, 24, 30, 36, and 42 hours post dose and vaginal fluid concentrations of lactoferrin and mannitol were determined. Average concentrations for the combined 18 dose administrations were obtained based on calculation of Area Under Curve for the locally estimated scatterplot smoothing (Loess) profile of lactoferrin and mannitol concentrations assuming 6 mL volume of distribution. The average concentration of lactoferrin was 33 mg/mL and the average concentrations of mannitol was 20 mg/mL. Average concentrations of both substances correspond to 0.1 fraction or 10% of the administered dose, 300 mg lactoferrin and 195 mg mannitol per Z2 tablet respectively. The 0.1 factor was used to estimate the expected average elemental Mn concentration based on the initial dose per tablet.

As for `[Zn]` [Zn, zinc], the “predicted Cmax, fold below the concentration of Zn used in MRS media” value in data set [1] (250 μg dose of Zn) is given as about 5 fold. Besides, the “predicted Cmax, fold above the amount of Zn that could be bound by calprotectin in BV” value in data set [1] (250 μg dose of Zn, 95% CI of median based on 2:1 Zn/CP) is recorded as about 4 fold. For the compound `[Mn+2]` [Mn, manganese], in data set [1] (50 μg dose of Mn), the “predicted Cmax, fold below the concentration of Mn used in MRS media” value is on record as about 2 fold. Besides, the “predicted Cmax, fold above the amount of Mn that could be bound by calprotectin in BV” value in data set [1] (50 μg dose of Mn, 95% CI of median 70 M based on 1:1 Mn/CP) is given as about 2 fold.

Turning to `OC[C@@H](O)[C@@H](O)[C@H](O)[C@H](O)CO` [mannitol, reference compound], in data set [2], the “average concentration as fraction of the administered dose” value is listed as 10%.

The values above are taken from patent publication US20250127807A1, “TREATMENT OF VAGINAL DYSBIOTIC CONDITIONS WITH ASSOCIATED ELEVATED VAGINAL CALPROTECTIN” (priority 2022, published 2025).
